pKd: −log10 of the molar value. Read-outs that look alike come from different tables or passages of the source.
Tests used:
Axl = molecular target: T1, Axl (Homo sapiens, UniProt P30530); experiment: LanthaScreen Eu kinase binding assay for Axl; settings: read-out: Axl kinase binding activity (Kd)
T1 sequence (P30530 26-894): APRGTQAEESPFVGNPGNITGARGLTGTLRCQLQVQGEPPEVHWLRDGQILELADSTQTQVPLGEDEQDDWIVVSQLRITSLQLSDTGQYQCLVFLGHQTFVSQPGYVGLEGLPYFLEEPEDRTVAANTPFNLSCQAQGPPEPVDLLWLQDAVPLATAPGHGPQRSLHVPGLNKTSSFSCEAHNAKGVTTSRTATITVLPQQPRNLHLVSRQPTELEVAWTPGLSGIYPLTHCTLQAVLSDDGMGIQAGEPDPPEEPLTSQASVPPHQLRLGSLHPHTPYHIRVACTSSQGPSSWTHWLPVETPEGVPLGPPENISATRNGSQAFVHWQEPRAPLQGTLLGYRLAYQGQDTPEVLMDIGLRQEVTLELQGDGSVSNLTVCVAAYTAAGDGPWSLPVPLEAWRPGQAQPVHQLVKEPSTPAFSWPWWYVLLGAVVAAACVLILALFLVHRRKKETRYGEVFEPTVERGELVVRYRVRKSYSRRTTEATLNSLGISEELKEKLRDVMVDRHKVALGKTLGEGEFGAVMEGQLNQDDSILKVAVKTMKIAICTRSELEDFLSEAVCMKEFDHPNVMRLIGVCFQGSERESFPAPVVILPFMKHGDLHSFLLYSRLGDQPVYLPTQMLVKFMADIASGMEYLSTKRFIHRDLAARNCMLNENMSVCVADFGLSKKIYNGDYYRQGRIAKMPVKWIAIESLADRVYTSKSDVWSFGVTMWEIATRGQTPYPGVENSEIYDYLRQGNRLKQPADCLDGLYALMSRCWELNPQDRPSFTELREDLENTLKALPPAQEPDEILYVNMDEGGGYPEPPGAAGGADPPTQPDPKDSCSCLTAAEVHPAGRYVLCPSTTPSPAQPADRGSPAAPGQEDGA
Description: LanthaScreen® Eu Kinase Binding assays were conducted at Life Technologies using the manufacturer's specifications for each kinase indicated.
Briefly, the principle behind this assay is based upon the binding and displacement of an Alexa Fluor 647-labeled tracer to the kinase of interest. Binding of the tracer to the kinase is detected using an EU-labeled anti-tag antibody. Simultaneous binding of both the tracer and antibody to the kinase gives rise to a FRET-signal. Binding of an inhibitor to the kinase competes for binding with the tracer, resulting in a loss of FRET-signal.
A given compound was diluted in DMSO to make a stock compound solution. The stock compound solution was serially diluted over eight steps in DMSO. Each diluted compound solution in DMSO was diluted in kinase buffer. Afterwards four kinds of working solution were prepared. First, Tracer-Working solution consists of Tracer 236 and Kinase Buffer. Second, Axl, Mer, Tyro3 or Met/anti-GST-AB-Working solution contained one of the kinases Axl, and Mer or anti-GST-AB (=anti glutathione-S-transferase antibody) in Kinase Buffer. Third, anti-GST-AB-Working solution was made with anti-GST-AB and Kinase Buffer. Last, in the DMSO-Working solution DMSO was added to Kinase Buffer to a final concentration to 3%. Each of the four kinds of working solutions were separately added to the assay plate and then incubated for 1 h at room temperature. After incubation, the assay plate was measured with respect to the FRET-Signal with the EnVision (Perkin Elmer) using the program LanthaHTRF-Assay. Data evaluation was done in the Quattro Workflow software. Kd (the equilibrium dissociation constant) values were calculated relative to vehicle (DMSO) control wells.

CSF1R = CSF1R (Homo sapiens, UniProt P07333); experiment: KINOMEscan competition binding assay for CSF1R; set-up: DNA tag for qPCR (not a peptide); host or cells: E. coli/T7 phage or HEK-293; settings: for pKd: read-out: CSF1R kinase binding activity (Kd)
CSF1R, sequence (P07333 20-972): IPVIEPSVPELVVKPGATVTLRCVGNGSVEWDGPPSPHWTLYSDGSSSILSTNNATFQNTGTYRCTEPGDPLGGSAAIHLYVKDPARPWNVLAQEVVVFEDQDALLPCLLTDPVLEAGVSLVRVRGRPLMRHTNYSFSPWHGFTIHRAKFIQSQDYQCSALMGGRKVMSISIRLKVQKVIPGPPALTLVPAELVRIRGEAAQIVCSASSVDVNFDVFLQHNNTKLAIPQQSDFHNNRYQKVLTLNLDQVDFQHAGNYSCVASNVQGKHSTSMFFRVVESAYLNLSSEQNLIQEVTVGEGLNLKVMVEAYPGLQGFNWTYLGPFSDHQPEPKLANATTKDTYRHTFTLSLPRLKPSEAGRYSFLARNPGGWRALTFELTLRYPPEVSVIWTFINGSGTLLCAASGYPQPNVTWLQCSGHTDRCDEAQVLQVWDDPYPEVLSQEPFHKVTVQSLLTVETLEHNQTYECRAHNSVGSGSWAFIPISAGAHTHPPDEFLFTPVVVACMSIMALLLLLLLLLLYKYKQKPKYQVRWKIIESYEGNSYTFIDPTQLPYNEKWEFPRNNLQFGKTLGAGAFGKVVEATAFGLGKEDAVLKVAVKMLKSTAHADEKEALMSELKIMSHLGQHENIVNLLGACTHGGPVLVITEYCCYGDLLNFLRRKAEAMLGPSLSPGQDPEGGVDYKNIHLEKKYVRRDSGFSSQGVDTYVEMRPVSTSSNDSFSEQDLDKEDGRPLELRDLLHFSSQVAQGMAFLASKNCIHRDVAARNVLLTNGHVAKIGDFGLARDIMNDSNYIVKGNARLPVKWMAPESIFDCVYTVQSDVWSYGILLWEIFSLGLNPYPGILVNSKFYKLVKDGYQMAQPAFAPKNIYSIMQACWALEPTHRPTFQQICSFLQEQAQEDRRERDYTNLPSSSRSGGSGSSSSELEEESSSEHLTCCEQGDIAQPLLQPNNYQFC
Method in brief: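 Values are either % inhibition at 0.1 uM, relative to DMSO (100% Ctrl) and a control compound (0% Ctrl), or Kd from an 11-point 3-fold series fitted with Hill slope −1. DNA-tagged kinase binds immobilized ligand beads with compound for 1 h at room temperature, and eluted kinase is measured by qPCR.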

[1] = read-out: CSF1R kinase binding activity, Percent (%) inhibition
[2] = read-out: CSF1R kinase binding activity, Range

SMILES | pKd (Axl) | inhibition at 0.1 µM (CSF1R; [1]) | inhibition at 0.1 µM (CSF1R; [2]) | pKd (CSF1R)
CCn1nc(C(=O)Nc2ccc(Oc3ccnc4cc(OC)c(OC)cc34)cn2)c(OCC(F)(F)F)c1C [Compound 1] | > 7.00 | 96% | ≥ 80% | > 7.00
COc1cc2nccc(Oc3ccc(NC(=O)c4nn(C(C)C)c(C)c4OCC(F)(F)F)nc3)c2cc1OC [Compound 2] | > 7.00 | 89% | ≥ 80% | 6.30 to 7.00
COc1cc2nccc(Oc3ccc(NC(=O)c4nn(C5CC5)c(C(C)=O)c4OCC(F)(F)F)nc3)c2cc1OC [Compound 3] | > 7.00 | 71% | 50 to 80% | 6.30 to 7.00
COc1cc2nccc(Oc3ccc(NC(=O)c4nn(C5CCOC5)cc4OCC(F)(F)F)nc3)c2cc1OC (stereo not drawn) [Compound 13] | > 7.00 | 98% | ≥ 80% | > 7.00
COc1cc2nccc(Oc3ccc(NC(=O)c4nn(C(C)(C)C)cc4OCC(F)(F)F)nc3)c2cc1OC [Compound 22] | > 7.00 | 93% | ≥ 80% | –
COc1cc2nccc(Oc3ccc(NC(=O)c4nn(C5CCC5)cc4OCC(F)(F)F)nc3)c2cc1OC [Compound 24] | > 7.00 | 96% | ≥ 80% | –
CCCn1cc(OCC(F)(F)F)c(C(=O)Nc2ccc(Oc3ccnc4cc(OC)c(OC)cc34)c(F)c2)n1 [Compound 25] | > 7.00 | 87% | ≥ 80% | –
CCCn1cc(OCC(F)(F)F)c(C(=O)Nc2ccc(Oc3ccnc4cc(OC)c(OC)cc34)c(C)c2)n1 [Compound 26] | > 7.00 | 94% | ≥ 80% | –
CCCn1cc(OCC(F)(F)F)c(C(=O)Nc2ccc(Oc3ccnc4cc(OC)c(OC)cc34)cc2C)n1 [Compound 27] | > 7.00 | 58% | 50 to 80% | –
CCCn1cc(OCC(F)(F)F)c(C(=O)Nc2ccc(Oc3ccnc4cc(OC)c(OC)cc34)cc2F)n1 [Compound 28] | > 7.00 | 90% | ≥ 80% | –
CCCn1cc(N(C)CC2CCOCC2)c(C(=O)Nc2ccc(Oc3ccnc4cc(OC)c(OC)cc34)cn2)n1 [Compound 34] | ≤ 6.30 | – | – | –
CCCn1cc(OC(C)C)c(C(=O)Nc2ccc(Oc3ccnc4cc(OC)c(OC(F)(F)F)cc34)c(F)c2)n1 [Compound 35] | ≤ 6.30 | 6% | < 50% | –
COc1cc2nccc(Oc3ccc(NC(=O)c4nn(C)cc4OCC(F)(F)F)cc3C)c2cc1OC [Compound 37] | 6.30 to 7.00 | 97% | ≥ 80% | –
COc1cc2nccc(Oc3ccc(NC(=O)c4nn(C5CCCC5)cc4OCC(F)(F)F)nc3)c2cc1OC [Compound 40] | > 7.00 | 94% | ≥ 80% | –
COc1cc2nccc(Oc3ccc(NC(=O)c4nn(CC5CCC5)cc4OCC(F)(F)F)nc3)c2cc1OC [Compound 42] | > 7.00 | 95% | ≥ 80% | –
COc1cc2nccc(Oc3ccc(NC(=O)c4nn(CC5CCCCC5)cc4OCC(F)(F)F)nc3)c2cc1OC [Compound 43] | > 7.00 | 94% | ≥ 80% | –
COc1cc2nccc(Oc3ccc(NC(=O)c4nn(CC5CCOC5)cc4OCC(F)(F)F)nc3)c2cc1OC (stereo not drawn) [Compound 44] | > 7.00 | 82% | ≥ 80% | –
COc1cc2nccc(Oc3ccc(NC(=O)c4cc(C5CC5)cnc4OCC(F)(F)F)nc3)c2cc1OC [Compound 178] | > 7.00 | – | – | –
COc1cc2nccc(Oc3ccc(NC(=O)c4sc(C5CC5)cc4OCC(F)(F)F)nc3)c2cc1OC [Compound 179] | 6.30 to 7.00 | – | – | –

The next lines start with the values.

pKd (Axl) | inhibition at 0.1 µM (CSF1R; [1]) | inhibition at 0.1 µM (CSF1R; [2]) | pKd (CSF1R) | SMILES
> 7.00 | 98% | ≥ 80% | > 7.00 | CCCn1cc(OCCF)c(C(=O)Nc2ccc(Oc3ccnc4cc(OC)c(OC)cc34)cn2)n1 [Compound 14]
> 7.00 | 87% | ≥ 80% | – | CCCn1cc(OCCC(O)CO)c(C(=O)Nc2ccc(Oc3ccnc4cc(OC)c(OC)cc34)cn2)n1 (stereo not drawn) [Compound 15]
> 7.00 | 97% | ≥ 80% | – | COc1cc2nccc(Oc3ccc(NC(=O)c4nn(CC(C)O)cc4OCC(F)(F)F)nc3)c2cc1OC (stereo not drawn) [Compound 17]
> 7.00 | 97% | ≥ 80% | – | COc1cc2nccc(Oc3ccc(NC(=O)c4nn(CCCO)cc4OCC(F)(F)F)nc3)c2cc1OC [Compound 18]
> 7.00 | 97% | ≥ 80% | – | COc1cc2nccc(Oc3ccc(NC(=O)c4nn(CC(C)=O)cc4OCC(F)(F)F)nc3)c2cc1OC [Compound 19]
> 7.00 | 99% | ≥ 80% | – | CCC(=O)n1cc(OCC(F)(F)F)c(C(=O)Nc2ccc(Oc3ccnc4cc(OC)c(OC)cc34)cn2)n1 [Compound 20]
> 7.00 | 95% | ≥ 80% | – | COc1cc2nccc(Oc3ccc(NC(=O)c4nn(CC(C)C)cc4OCC(F)(F)F)nc3)c2cc1OC [Compound 21]
> 7.00 | 94% | ≥ 80% | – | CCCn1cc(NCC(F)(F)F)c(C(=O)Nc2ccc(Oc3ccnc4cc(OC)c(OC)cc34)cn2)n1 [Compound 23]
> 7.00 | 99% | ≥ 80% | – | COc1cc2nccc(Oc3ccc(NC(=O)c4nn(C[C@@H](C)O)cc4OCC(F)(F)F)nc3)c2cc1OC [Compound 29]
> 7.00 | 99% | ≥ 80% | – | COc1cc2nccc(Oc3ccc(NC(=O)c4nn(C[C@H](C)O)cc4OCC(F)(F)F)nc3)c2cc1OC [Compound 30]
> 7.00 | 95% | ≥ 80% | – | CCCn1cc(OCCC(F)(F)F)c(C(=O)Nc2ccc(Oc3ccnc4cc(OC)c(OC)cc34)cn2)n1 [Compound 31]
> 7.00 | 95% | ≥ 80% | – | CCCn1cc(OCC(F)(F)F)c(C(=O)Nc2ccc(Oc3ccnc4cc(OC)c(OC)cc34)nn2)n1 [Compound 32]
> 7.00 | 98% | ≥ 80% | – | COc1cc2nccc(Oc3ccc(NC(=O)c4nn(C)cc4OCC(F)(F)F)nc3)c2cc1OC [Compound 33]
> 7.00 | 95% | ≥ 80% | – | CCCCn1cc(OCC(F)(F)F)c(C(=O)Nc2ccc(Oc3ccnc4cc(OC)c(OC)cc34)cn2)n1 [Compound 36]
> 7.00 | 87% | ≥ 80% | – | CCCn1cc(OCC(F)(F)F)c(C(=O)Nc2ccc(Oc3ccnc4cc(OC)c(OC)cc34)cc2)n1 [Compound 38]
> 7.00 | 97% | ≥ 80% | – | COc1cc2nccc(Oc3ccc(NC(=O)c4nn(CCC#N)cc4OCC(F)(F)F)nc3)c2cc1OC [Compound 39]
> 7.00 | 97% | ≥ 80% | – | COc1cc2nccc(Oc3ccc(NC(=O)c4nn(CC5CC5)cc4OCC(F)(F)F)nc3)c2cc1OC [Compound 41]
> 7.00 | – | – | – | CCCn1cc(OCCN(C)C)c(C(=O)Nc2ccc(Oc3ccnc4cc(OC)c(OC)cc34)cn2)n1 [Compound 177]

— patent US12162858B2, “Quinoline derivatives as inhibitors of AXL/MER RTK and CSF1R” (QURIENT CO., LTD., priority 2018, dated 2024)
